Data on six compounds can be found in patent US20080194407A1, “High nitrogen containing chelate compositions suitable for plant delivery” (priority 2007, published 2008).

In assay [1] the test system is Golden Delicious apples. The assay is described as follows: Golden Delicious apple foliar calcium study: Ca analysis of leaves and fruit. Type of assay: in vivo, apple trees. The conditions noted are these: 4 foliar applications, 14 day interval; for Apple Ca: apple fruit flesh; for Leaf Ca: apple leaves from fruiting spur. The protocol: A study was conducted with Golden Delicious apples. Calcium is effective in reducing bitterpit in apples, and the present study was initially designed to determine which source of calcium, described below, had the greatest impact on reducing bitterpit. As a secondary aspect of this study, the leaves and fruit were analyzed to see if the source of calcium could affect calcium retention in the plant tissues.
(§1) A block of mature apple trees was divided into 4 sections.
(§2) The amino acids in the calcium chelate were glycine, valine, leucine, tryptophan, isoleucine, lysine, aspartic acid, alanine, and arginine. All treatments were made on the same day. The applications began with the first cover spray and continued from there every 14 days for 4 applications. The leaves were collected from a fruiting spur located at a 45 degree angle from the spray rig and into the tree canopy 3 feet. Samples were collected and sent for analysis. Apples were also collected on the same day from the same location as the leaves. They also were sent for analysis of the fruit flesh. The orchard was then harvested and placed in storage.

Assay [2] deals with Golden Delicious apples. Kind of assay: Golden Delicious apple foliar calcium study: bitterpit and culls. Format: in vivo, apple trees. Conditions: apples harvested and stored; 4 foliar applications, 14 day interval. As for the experimental part: A study was conducted with Golden Delicious apples. […] As a secondary aspect of this study, the leaves and fruit were analyzed to see if the source of calcium could affect calcium retention in the plant tissues.
as §1, §2
It is noted that absorption of calcium into the plant from a foliar spray is only part of what the plant needs. The calcium source must be able to be retained by the plant after absorption and then be translocated and enter into metabolic activities as needed.

Assay [3] relates to corn (maze) plants. The assay is described as follows: Greenhouse foliar study in corn: Fe concentration by plasma emission spectrophotometry. The conditions noted are these: 400 ppm Fe foliar spray twice, harvest three weeks after last spray. Type of assay: in vivo. As for the experimental part: (§3) A greenhouse foliar study was conducted in which 12 inch corn (maze) plants were sprayed with a solution that contained 400 ppm Fe as FeSO4, Fe EDTA, or Fe high nitrogen amino acid chelate with and without the addition of urea and ammonium nitrate. The high nitrogen amino acids were lysine, histidine, cysteine, tryptophan, aspartic acid, alanine, and glycine. The urea and ammonium nitrate were formulated as an admixture and not reacted to the Fe sources. […] These same treatments were repeated one week later. Three weeks following the last spray, all of the plants were harvested and the roots separated from the stalks. Each sample was dried for 24 hours at 75° C., then weighed for dry matter, and the Fe concentrations determined by plasma emission spectrophotometry.

The test system of assay [4] is corn (maze) plants. The assay is described as follows: Greenhouse foliar study in corn: plant growth as dry matter. The conditions noted are these: 400 ppm Fe foliar spray twice. Format: in vivo. The protocol:
as §3, with “spectrophotometry. […] Greater Fe retention also results in greater plant growth as measured by dry matter.” for “spectrophotometry.”

The next assay relates to oranges. The assay is described as follows: Orange orchard foliar zinc study: fruit production and quality. Type of assay: in vivo, orange trees. The conditions noted are these: equivalent zinc. The protocol: A study was conducted in oranges in which the application of zinc nitrate was compared to a zinc mixed ligand amino acid chelate. The mixed ligands included arginine, lysine, histidine, leucine, tryptophan, aspartic acid, alanine, and glycine. Specifically, a 12 year old orchard containing 193 trees per acre was evaluated. The trees were divided into 2 groups. One group was sprayed with a zinc nitrate treatment, and the other group was sprayed with a zinc mixed ligand amino acid chelate treatment. The treatments were applied by a sprayer that sprays 535 gallons of liquid per acre.
Each tree was sprayed twice during the study, a first time at 90% petal drop and a second time 14 days later. The zinc nitrate was applied at 49 ounces per acre and the amino acid chelate at 66 ounces per acre. The amount of zinc applied to each group was equivalent.
Ten trees from each group were selected at random and the oranges picked from those trees by hand.

Where [5] appears, read: 0 ppm N from urea and ammonium nitrate.
[6] abbreviates: 500 ppm N from urea and ammonium nitrate.
The mark [7] stands for this setting: 1000 ppm N urea and ammonium nitrate.

For the compound `[Ca+2].[Cl-].[Cl-]` [Ca Chloride, calcium chloride], in the assay on Golden Delicious apples [1], the “Apple Ca” value turned out to be 138 ppm and the “Leaf Ca” value came out at 1.70%. Also, in the assay with Golden Delicious apples [2], the “percent of bitterpit in the culls” value amounted to 26% and the percent of culls is on record as 36%.

With `O=[N+]([O-])[O-].O=[N+]([O-])[O-].[Ca+2]` [Ca Nitrate, calcium nitrate], in the assay on Golden Delicious apples [1], the “Apple Ca” value came to 190 ppm and the “Leaf Ca” value is listed as 2.37%. For the same compound, in the assay on Golden Delicious apples [2], the “percent of bitterpit in the culls” value is 20% and the percent of culls was 34%.

Consider `[O]=[Ca]` [Ca Oxide, calcium oxide], for which, in the assay with Golden Delicious apples [1], the “Apple Ca” value amounted to 148 ppm and the “Leaf Ca” value is on record as 2.15%. In the assay on Golden Delicious apples [2], the “percent of bitterpit in the culls” value amounted to 25% and the percent of culls is on record as 34%.

For `O=C([O-])CN(CCN(CC(=O)[O-])CC(=O)[O-])CC(=O)[O-].[Fe+3]` [Fe EDTA], the “Fe in Leaves” value in the assay with corn (maze) plants [3] (setting [5]) is on record as 47 ppm^a Fe ppm Fe; in the assay with corn (maze) plants [3] (setting [6]), 56 ppm^a Fe ppm Fe; with corn (maze) plants [3] (setting [7]), 69 ppm^a Fe ppm Fe. The results for the “Dry Matter” value in the assay on corn (maze) plants [4] (setting [5]), in the assay on corn (maze) plants [4] (setting [6]) and in the assay on corn (maze) plants [4] (setting [7]) were 14.12 g/pot, 15.08 g/pot and 11.24 g/pot, respectively.

Take `O=S(=O)([O-])[O-].[Fe+2]` [FeSO4]: the “Fe in Leaves” value with corn (maze) plants [3] (setting [5]) is 48 ppm^a Fe ppm Fe; in the assay with corn (maze) plants [3] (setting [6]) it was 53 ppm^a Fe ppm Fe; with corn (maze) plants [3] (setting [7]) it was 63 ppm^a Fe ppm Fe. Moreover, the “Dry Matter” value in the assay on corn (maze) plants [4] (setting [5]) came out at 13.23 g/pot; in the assay with corn (maze) plants [4] (setting [6]), 15.73 g/pot; in the assay on corn (maze) plants [4] (setting [7]), 14.82 g/pot.

As to `O=[N+]([O-])[O-].O=[N+]([O-])[O-].[Zn+2]` [Zn Nitrate, zinc nitrate], in the assay on oranges (oranges, sprayed twice), the “% Acid” value worked out at 1.05%, the “% Brix” value is 12.2% and the “% Juice” value turned out to be 57.2%. In the assay with oranges (sprayed twice (90% petal drop and 14 days later), ten trees per group), the Weight of oranges/tree worked out at 95.11 lbs.
